Measured values as given in patent publication US4342780A, “Method of depleting endogenous monoamines” (Merrell-Toraude et Cie, priority 1981, dated 1982).

How the values were obtained:
AADC [1] = molecular target: T1, AADC (Sus scrofa, UniProt P80041); assay: In vitro AADC inhibition: time of 90% inactivation (14CO2 trapping, DL-[1-14C]-dopa substrate); type: biochemical, hog; parameters: key to RATING: ++++: The relative activities of the compounds are rated by the given number of "plus" signs; +++: The relative activities of the compounds are rated by the given number of "plus" signs; 0-+: The relative activities of the compounds are rated by the given number of "plus" signs; conditions: for TIME OF 90% INACTIVATION: pH 7.4, 37° C.; for RATING: relative activity
T1 sequence (P80041 1-486): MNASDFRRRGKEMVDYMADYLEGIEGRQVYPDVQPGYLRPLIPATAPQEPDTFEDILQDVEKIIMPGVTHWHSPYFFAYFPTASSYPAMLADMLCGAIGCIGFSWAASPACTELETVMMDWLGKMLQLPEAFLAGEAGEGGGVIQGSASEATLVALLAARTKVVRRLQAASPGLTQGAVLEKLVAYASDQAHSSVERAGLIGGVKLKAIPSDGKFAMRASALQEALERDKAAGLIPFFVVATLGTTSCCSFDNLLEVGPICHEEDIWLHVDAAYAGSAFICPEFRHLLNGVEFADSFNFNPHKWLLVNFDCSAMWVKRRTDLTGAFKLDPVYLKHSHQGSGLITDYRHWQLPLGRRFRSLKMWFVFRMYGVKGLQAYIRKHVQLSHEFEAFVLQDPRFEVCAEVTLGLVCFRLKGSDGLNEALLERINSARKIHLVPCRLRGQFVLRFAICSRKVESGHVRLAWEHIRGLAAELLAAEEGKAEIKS
Procedure: AADC can be purified from hog kidney by the general method of J. Christenson et al. Archs. Biochem. Biophys., 141, 356 (1970) and G. Lancaster et al., Can. J. Biochem., 50, 791 (1972), and the specific activity of the enzyme is determined by the ^14 CO2 trapping method using DL-[1-^14 C]-dopa as the substrate (see Christenson et al.). One unit of activity is defined as the total amount of enzyme which produces 1 n mol of CO2 per minute, with DL-[1-^14 C]-dopa as substrate.
To 100 μl of 50 mM-phosphate buffer pH 7.4 containing 100 mM-mercapto-ethanol are added 5 μl of an aqueous solution containing the test compound at the desired concentration and 50 μl of an aqueous solution containing 2 units of AADC. The mixture is incubated at 37° C. and 20 μl aliquots are removed at various times. The AADC activity remaining in each aliquot is measured by the CO2 trapping method of Christenson.
The relative activities of the compounds are rated by the given number of "plus" signs.

AADC [2] = assay: Ex vivo AADC activity in organs of mice after repeated i.p. doses (Table II); parameters: species or system mice (Swiss Albino); conditions: three days, 12 h after 6th dose, vs control
Procedure: (§1) The test animals (e.g. mice or rats) are given the test compound in a suitable vehicle, either orally or by injection, each day over the period of time desired. The animals are kept on a constant time cycle, and body weights are measured daily. The animals are sacrificed by decapitation 12 to 24 hours after receiving the last dose of the test compound. Control animals receive the vehicle alone.
(§2) Immediately after death, the organs (brain, heart, and kidney) are removed and homogenized either in 50 ml phosphate buffer pH 6.8 for AADC determination or in ice-cold 0.4 M HClO4 containing 0.05% (w/v) EDTA and 0.1% (w/v) sodium bisulfite for catecholamine determination. AADC activity is determined by the ^14 CO2 trapping method of J. Christenson, supra (see Example 14) using DL-[1-^14 C]-dopa as the substrate. Catecholamines are determined by centrifuging the homogenate, adding the supernatant to alumina buffered to pH 8.0-8.4 to adsorb the catecholamines, re-extracting the catecholamines from the alumina with 0.2 M HClO4 and determining the catecholamines in the extracts using known procedures, such as by reversed-phase ion-pair HPLC with electrochemical detection.
(§3) Table II, shown below, sets forth the results obtained by testing particular compounds of Formula I in the above-described procedure in mice (Swiss Albino) after i.p. administration of the compound twice daily for three days: […]

[3] = system: catecholamine content (norepinephrine, dopamine); assay: Catecholamine content in organs of mice after repeated i.p. doses (Table II); type: in vivo, mice (Swiss Albino); conditions: three days, 12 h after 6th dose, vs control
Procedure: as §1, §2, §3

[4] = system: catecholamine content (norepinephrine, dopamine); assay: Catecholamine content in organs of rats after oral administration once daily for 15 days (Table III); type: in vivo, rats (Sprague-Dawley); conditions: 24 h after 15th dose, vs control; for % CHANGE Brain Dopamine: * not significant
Procedure: as §1, §2
Table III gives the results obtained by testing particular compounds of Formula I in rats (Sprague-Dawley) after oral administration of the test compound once daily for 15 days. AADC activity was not determined.

AADC [5] = assay: AADC inhibition in organs of fasted rats after a single dose; type: in vivo; conditions: 16 h
Procedure: as §1, §2
(§4) In the brain, doses of 10 mg/kg and 200 mg/kg produced a 10% reduction and a 70-80% reduction of AADC activity, respectively. […] In the heart, no reduction of norepinephrine is noted up to a dose of 200 mg/kg. When tested after multiple administration of 10, 25, or 50 mg/kg given daily for six days in rats sacrificed 24 hours after the sixth dose, the compound produced a 50% decrease in brain norephinephrine at a dose of 10 mg/kg (daily). […] Serotonin (5-HT) levels, as assessed by standard techniques, are not altered in the brain even at the highest dose tested. Heart norepinephrine is reduced by only 20% at the highest dose.

[6] = system: catecholamine levels (norepinephrine, dopamine); assay: Catecholamine levels in organs of fasted rats after a single dose; type: in vivo; conditions: 16 h
Procedure: as §1, §2, §4

[7] = system: catecholamine levels (norepinephrine, dopamine) and serotonin (5-HT); assay: Catecholamine and serotonin levels in organs of rats after daily doses for six days; type: in vivo
Procedure: as §1, §2, §4

[8] = system: endogenous catecholamine and 5-HT levels; assay: Effect on endogenous catecholamine and 5-HT levels in brain and heart (general statement); type: in vivo
[9] = system: catecholamine levels (dopamine, noradrenaline); assay: Effect of dopamine injection on catecholamine levels in heart and brain of mice treated with test compound (Table VI); type: in vivo, Male albino mice
Procedure: Saline solution is used as a control. The mice are sacrificed and the catecholamines, dopamine and noradrenaline, and serotonin (5-hydroxytryptamine) are determined by reverse-phase ion-pair high pressure liquid chromatography using electrochemical detection. […] Twelve hours after the second dose, one group of animals received an i.p. injection of 50 mg/kg of dopamine-HCl (Sigma, Chem. Co), the other group received saline instead. Three hours after the dopamine injection, the animals were killed and catecholamines were measured in heart and brain as described in Example 18.

[10] = 10 mg/kg i.p. twice daily, * not significant
[11] = 10 mg/kg i.p. twice daily, * not significant (-25*, -7*)
[12] = 10 mg/kg i.p. twice daily, * not significant (-25*, -9*)
[13] = 100 mg/kg i.p. twice daily, * not significant (-35*)
[14] = 10 mg/kg oral once daily 15 days
[15] = 20 mg/kg oral once daily 15 days
[16] = 30 mg/kg oral once daily 15 days

Row | SMILES | TIME OF 90% INACTIVATION (AADC [1]; CONC. 10 μM) [min] | RATING (AADC [1]; CONC. 10 μM) | % CHANGE AADC Brain (AADC [2]; 10 mg/kg i.p. twice daily) [%] | % CHANGE AADC Kidney (AADC [2]; 10 mg/kg i.p. twice daily) [%] | % CHANGE AADC Brain (AADC [2]; 100 mg/kg i.p. twice daily) [%] | % CHANGE AADC Kidney (AADC [2]; 100 mg/kg i.p. twice daily) [%] | % CHANGE NOREPINEPHRINE Brain [3, 10] [%] | % CHANGE NOREPINEPHRINE Heart [3, 11] [%] | % CHANGE DOPAMINE Brain [3, 12] [%] | % CHANGE NOREPINEPHRINE Brain ([3]; 100 mg/kg i.p. twice daily) [%] | % CHANGE NOREPINEPHRINE Heart ([3]; 100 mg/kg i.p. twice daily) [%] | % CHANGE DOPAMINE Brain [3, 13] [%] | % CHANGE Brain Norepinephrine [4, 14] [%] | % CHANGE Heart Norepinephrine [4, 14] [%] | % CHANGE Brain Dopamine [4, 14] [%] | % CHANGE Brain Norepinephrine [4, 15] [%] | % CHANGE Heart Norepinephrine [4, 15] [%] | % CHANGE Brain Dopamine [4, 15] | % CHANGE Brain Norepinephrine [4, 16] [%] | % CHANGE Heart Norepinephrine [4, 16] [%] | other results
1 | NC(CF)(Cc1cccc(O)c1O)C(=O)O (centres unmarked) [2,3-diOH-phenyl, 2-Amino-2-fluoromethyl-3-(2,3-dihydroxyphenyl)propionic acid] | 1 to 2 | ++++ | -73 | -90 | -99 | -90 | -33 | -33 | -25 | -90 | -90 | -93 | -11 | -38 | 0 | -17 | -48 | +3% | -27 | -79 | % CHANGE Brain Dopamine [4, 16]: -10%
2 | COC(=O)C(N)(CF)Cc1ccc(O)cc1 (centres unmarked) [Methyl 2-amino-2-fluoromethyl-3-(4-hydroxyphenyl)propionate] |  |  |  |  |  |  |  |  |  |  |  |  |  |  |  |  |  |  |  |  | reduction of AADC activity in the brain (AADC [5]; 10 mg/kg single dose): 10%; AADC activity in kidney, liver, and adrenals (AADC [5]; 50 mg/kg single dose): marked decrease; AADC inhibition in kidney, liver, and adrenals (AADC [5]; 100 mg/kg single dose): Complete inhibition; reduction of AADC activity in the brain (AADC [5]; 200 mg/kg single dose): 70-80%; AADC activity in the heart (AADC [5]; up to 200 mg/kg single dose): not reduced significantly; Brain norepinephrine decrease ([6]; 10 mg/kg single dose): 15-20%; dopamine decrease (brain) ([6]; 50 mg/kg single dose): decreased significantly; Brain norepinephrine decrease ([6]; 200 mg/kg single dose): 50%; dopamine decrease (brain) ([6]; 200 mg/kg single dose): 75%; reduction of norepinephrine in the heart ([6]; up to 200 mg/kg single dose): no reduction; decrease in brain norepinephrine ([7]; 10 mg/kg daily for six days, 24 h after sixth dose): 50%; Brain dopamine decrease ([7]; 50 mg/kg daily for six days, 24 h after sixth dose): 50%; decrease in brain norepinephrine, response at higher doses ([7]; 25 or 50 mg/kg daily for six days (above 10 mg/kg), 24 h after sixth dose): do not give an additional response; Brain dopamine, effect at lower doses ([7]; below 50 mg/kg (10, 25) daily for six days, 24 h after sixth dose): no significant effect; Serotonin (5-HT) levels in the brain ([7]; even at the highest dose tested, daily for six days): not altered; Heart norepinephrine reduction ([7]; highest dose (50 mg/kg) daily for six days, 24 h after sixth dose): 20%; endogenous 5-HT levels in the brain [8]: not altered; endogenous catecholamine levels in brain and heart [8]: lower engenous catecholamine levels in the brain but not in the heart
3 | NCCc1ccc(O)c(O)c1 [dopamine, reference compound] |  |  |  |  |  |  |  |  |  |  |  |  |  |  |  |  |  |  |  |  | depletion of noradrenaline in the heart achieved by the test-compound ([9]; effect of dopamine injection 50 mg/kg i.p.): reversed totally; depletion of amines in the central nervous system ([9]; effect of exogenous dopamine 50 mg/kg i.p.): not affected
4 | NC(CF)(Cc1cccc(O)c1)C(=O)O (centres unmarked) [Example 3-OH-phenyl, 2-Amino-2-fluoromethyl-3-(3-hydroxyphenyl)propionic acid] |  |  | -80 | -78 | -95 | -96 | -34 | 0 | 0 | -77 | -49 | -75 |  |  |  |  |  |  |  |  | TIME OF 90% INACTIVATION (AADC [1]; CONC. 100 μM): 4 min; RATING (AADC [1]; CONC. 100 μM): +++
5 | NC(CF)(Cc1cc(O)ccc1O)C(=O)O (centres unmarked) [2,5-diOH-phenyl, 2-Amino-2-fluoromethyl-3-(2,5-dihydroxyphenyl)propionic acid] | 3 | ++++ | -58 | -78 | -99 | -87 | 0 | -25 | 0 | -90 | -76 | 90 | -16 | -31 | -1 | -32 | -38 | -2% | -37 | -53 | % CHANGE Brain Dopamine [4, 16]: -5%
